The results in this text go back to patent publication US7772260B2, “Imidazo[2,1-b]-1,3,4-thiadiazole sulfonamides” (Aegera Therapeutics Inc., priority 2001, dated 2010).

One assay concerns Sprague Dawley rats. Format: in vivo. As to the method: Taxol™ commonly causes dose dependent peripheral neuropathies during cancer treatment. […] All of the Taxol™ treated animals developed peripheral neuropathies, characterized by ‘tip toe walking’. The extent of this neuropathy was analyzed by quantifying the refracted light captured by a video camera as the animals walked over a glass plate.
Adult Sprague Dawley rats were treated with Taxol™ (IP, 9 mg/kg in Cremophor EL and ethanol) twice weekly for 3 weeks (J. Neuro-Oncology (1999) 41: 107-116). Compound was administered I hour prior to Taxol™ treatment (IP, 1, 5 and 10 mg/kg in hydroxypropyl-β-cyclodextrin). Taxol™ treated control animals were treated with saline solution at the same time of Compound treated animals. Non-treated control animals were treated with saline solution as above. Weight gain was measured every second day, starting at Day 1. Gait analysis was measured by quantifying the refracted light captured by a video camera as the animals walked over a glass plate, 2 days after the final Taxol™ treatment (Physiology and Behavior (1994), 55(4): 723-726; Med. Sci. Res. (1988) 16: 901-902). […] H/M wave recovery was analyzed using standard procedures 2 days after the final Taxol™ treatment (Muscle Nerve (1998) 21: 1405-1413; Annals of Neurology (1998) 43 (1): 46-55).
Male Spraugue Dawley rats were treated with 50% HPDC vehicle (veh/veh), compound I dissolved in 50% HPDC at 1, 5, or 10 mg/kg (veh/1, veh/5, veh/10, respectively), or Taxol™ (9 mg/kg)+compound 1 dissolved in 50% HPDC at 1, 5, and 10 mg/kg (Tax/1, Tax/5, Tax/10) according to the dosing regime described in Example 160. Weight measurements were made ever other day.
Two days after the completion of drug treatments animal walking gait was analyzed according to a) total imprint area, and b) total number of contact points.
FIG. 6 illustrates the effect of Compound 1 on H-reflex amplitude, a measurement of H/M wave disturbance induced by Taxol™. Two days after the completion of drug treatments, the dorsal root ganglia and attached nerves were dissected bilaterally from L4 and L5 and their H/M wave conductance measured.

Assay [1] relates to human ovarian carcinoma cells (OV2008). Kind of assay: Co-treatment of OV2008 cell line with Taxol and compound 1. Format: cell-based. The following applies: Taxol™ (50 nM) + compound at 5, 10, 20 uM; Taxol™ and/or cisplatin. As to the method:
H460 and OV2008 cells were plated and incubated for 48 hours. Compound 1 and/or compound 1 and Taxol™ were added. Viability was determined after 24 hours, staining with MTT (Promega).
FIG. 3 illustrates the co-treatment of H460 and OV 2008 cell lines with Taxol™ and compound 1. H460 lung carcinoma and OV2008 ovarian carcinoma cells were treated with Taxol™ (50 nM) and/or Taxol™ (50 nM)+compound 1 (noted as AEG 03482) at levels of 5, 10, and 20 uM.

For the next assay, the system named is sciatic nerve. Kind of assay: Sciatic nerve crush injury model. Format: in vivo, Sprague Dawley rats. The text has this: The sciatic nerve crush model is a representative model of axonal repair and regeneration. The sciatic nerve is physically crushed with forceps at the mid-thigh; only the right leg is injured, the left leg serving as a control. The axons die from the crush point to their point of innervation. Functional loss of the axons is rapidly observed as the animals drag their right leg and the toes of the right leg no longer spread. Recovery is observed in approximately 28 days as the animals regain use of their right leg. More quantitative measurements of recovery include toe spread measurements between the digits 1 and 5 and digits 2 and 4, gait analysis and electrical conductivity from the toes to the injury site (see Example 161). Male Sprague Dawley rats were anaesthetized (halothane and buprenorphine) and the right hind leg was blunt dissected to expose the sciatic nerve at mid-thigh. The nerve was crushed twice for a total of 30 seconds using No.7 Dumont jeweller's forceps. The incision is sutured and the animals are allowed to recover for 28 days. Functional recovery was measured by gait, nerve conductance and toe spread measurements between digits 1 and 5 and digits 2 and 4.

[2] abbreviates: 5 mg/kg with Taxol™ (9 mg/kg), bi-weekly.

“Also recorded” adds a separate entry of the source.

`NS(=O)(=O)c1nn2cc(-c3ccccc3)nc2s1` [Compound 1, 6-Phenylimidazo[2,1-b]-1,3,4-thiadiazole-2-sulfonamide]: in the assay with Sprague Dawley rats (setting [2]), the “loss in foot pad contact” value was 23% and the “weight gain as compared to control” value is “normal weight gain”. In the assay with Sprague Dawley rats (two days after completion of drug treatments), the “H/M wave disturbance induced by Taxol™ (H-reflex amplitude)” value is given as “caused a reversal in H/M wave disturbance”. In the assay with Sprague Dawley rats (two days after completion of drug treatments, total imprint area, number of contact points), the “Taxol™ induced gait disturbance” value is listed as “prevented Taxol™ induced gait disturbance”. For the same compound, the “protection of OV2008 cells from Taxol™ induced apoptosis” value in assay [1] is on record as “no protection; also recorded: did not protect”. The “functional recovery after sciatic nerve crush” value in the assay with sciatic nerve (1 and 10 mg/kg) was “improved recovery”. The “recovery in toe spread area (inner toe spread)” value with sciatic nerve (versus vehicle control) was “induced increased recovery”.
